Test system: KRAS PDC multicell spheroid viability
Test: Anticancer human tumor 825966-067-R-J1-PDC patient-derived colon carcinoma cell line growth inhibition [KRAS2]
Details: for IC50: curve of first compound; for viability, T/C: stronger effect = lower value
Method in brief: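 KRAS-mutant tumor cells were grown as spheroids with HUVEC endothelial cells and human MSCs as stroma. Targeted agents were tested alone and with KRAS pathway inhibitors. Doses started at or near clinical Cmax, or 10 microM, descending half-log.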

[1] = second compound 0.0316 µM, first compound 0.0316 µM
[2] = second compound 0.0316 µM, first compound 0.1 µM
[3] = second compound 0.0316 µM, first compound 0.316 µM
[4] = second compound 0.0316 µM, first compound 1 µM
[5] = second compound 0.0316 µM, first compound 3.16 µM
[6] = second compound 0.0316 µM, first compound 10 µM
[7] = second compound 0.1 µM, first compound 0.0316 µM
[8] = second compound 0.1 µM, first compound 0.1 µM
[9] = second compound 0.1 µM, first compound 0.316 µM
[10] = second compound 0.1 µM, first compound 1 µM
[11] = second compound 0.1 µM, first compound 3.16 µM
[12] = second compound 0.1 µM, first compound 10 µM
[13] = second compound 0.316 µM, first compound 0.0316 µM
[14] = second compound 0.316 µM, first compound 0.1 µM
[15] = second compound 0.316 µM, first compound 0.316 µM
[16] = second compound 0.316 µM, first compound 1 µM
[17] = second compound 0.316 µM, first compound 3.16 µM
[18] = second compound 0.316 µM, first compound 10 µM
[19] = second compound 1 µM, first compound 0.0316 µM
[20] = second compound 1 µM, first compound 0.1 µM
[21] = second compound 1 µM, first compound 0.316 µM
[22] = second compound 1 µM, first compound 1 µM
[23] = second compound 1 µM, first compound 3.16 µM
[24] = second compound 1 µM, first compound 10 µM
[25] = second compound 3.16 µM, first compound 0.0316 µM
[26] = second compound 3.16 µM, first compound 0.1 µM
[27] = second compound 3.16 µM, first compound 0.316 µM
[28] = second compound 3.16 µM, first compound 1 µM
[29] = second compound 3.16 µM, first compound 3.16 µM
[30] = second compound 3.16 µM, first compound 10 µM
[31] = second compound 0.0316 µM, first compound 0.000316 µM
[32] = second compound 0.0316 µM, first compound 0.001 µM
[33] = second compound 0.0316 µM, first compound 0.00316 µM
[34] = second compound 0.0316 µM, first compound 0.01 µM
[35] = second compound 0.1 µM, first compound 0.000316 µM
[36] = second compound 0.1 µM, first compound 0.001 µM
[37] = second compound 0.1 µM, first compound 0.00316 µM
[38] = second compound 0.1 µM, first compound 0.01 µM
[39] = second compound 0.316 µM, first compound 0.000316 µM
[40] = second compound 0.316 µM, first compound 0.001 µM
[41] = second compound 0.316 µM, first compound 0.00316 µM
[42] = second compound 0.316 µM, first compound 0.01 µM
[43] = second compound 1 µM, first compound 0.000316 µM
[44] = second compound 1 µM, first compound 0.001 µM
[45] = second compound 1 µM, first compound 0.00316 µM
[46] = second compound 1 µM, first compound 0.01 µM
[47] = second compound 3.16 µM, first compound 0.000316 µM
[48] = second compound 3.16 µM, first compound 0.001 µM
[49] = second compound 3.16 µM, first compound 0.00316 µM
[50] = second compound 3.16 µM, first compound 0.01 µM
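Also: spheroids exposed to compounds for 7 days.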
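For viability, T/C in this document: 100% = DMSO vehicle control viability.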

Compound	IC50 (second compound 0.0316 µM) [nM]	IC50 (second compound 0.1 µM) [nM]	IC50 (second compound 0.316 µM) [nM]	IC50 (second compound 1 µM) [nM]	IC50 (second compound 3.16 µM) [nM]	viability, T/C [1] [%]	viability, T/C [2] [%]	viability, T/C [3] [%]	viability, T/C [4] [%]	viability, T/C [7] [%]	viability, T/C [8] [%]	viability, T/C [9] [%]	viability, T/C [10] [%]	viability, T/C [13] [%]	viability, T/C [14] [%]	viability, T/C [15] [%]	viability, T/C [19] [%]	viability, T/C [20] [%]	viability, T/C [25] [%]	viability, T/C [26] [%]	other results
CC(C)NCC(C(=O)N1CCN(c2ncnc3c2C(C)CC3O)CC1)c1ccc(Cl)cc1 (stereo not given) + C=CC(=O)N1CCN(c2nc(OCC3CCCN3C)nc3c2CCN(c2cccc4cccc(C)c24)C3)CC1CC#N	2180	2430	2140	1870	447	105	114	131	94.2	83.8	99.2	126	126	87.7	118	137	86.9	98.3	84.5	56.9	viability, T/C [5]: 29.3%; viability, T/C [6]: 10.8%; viability, T/C [11]: 32.3%; viability, T/C [12]: 9.94%; viability, T/C [16]: 101%; viability, T/C [17]: 23.3%; viability, T/C [18]: 9.48%; viability, T/C [21]: 124%; viability, T/C [22]: 88.1%; viability, T/C [23]: 17.6%; viability, T/C [24]: 5.49%; viability, T/C [27]: 66%; viability, T/C [28]: 13.9%; viability, T/C [29]: 2.27%; viability, T/C [30]: 0.81%
CC(C)n1nc(-c2ccc3oc(N)nc3c2)c2c(N)ncnc21 + C=CC(=O)N1CCN(c2nc(OCC3CCCN3C)nc3c2CCN(c2cccc4cccc(C)c24)C3)CC1CC#N	> 100	> 100	> 100	> 100	9.07	113	141	–	–	113	108	–	–	115	94.7	–	98.7	85.2	64.4	31.2	viability, T/C [31]: 111%; viability, T/C [32]: 86.4%; viability, T/C [33]: 116%; viability, T/C [34]: 153%; viability, T/C [35]: 81.6%; viability, T/C [36]: 106%; viability, T/C [37]: 119%; viability, T/C [38]: 162%; viability, T/C [39]: 92%; viability, T/C [40]: 97.3%; viability, T/C [41]: 129%; viability, T/C [42]: 154%; viability, T/C [43]: 89.3%; viability, T/C [44]: 108%; viability, T/C [45]: 105%; viability, T/C [46]: 154%; viability, T/C [47]: 106%; viability, T/C [48]: 84.9%; viability, T/C [49]: 116%; viability, T/C [50]: 39.9%
CC1(C)CCC(CN2CCN(c3ccc(C(=O)NS(=O)(=O)c4ccc(NCC5CCOCC5)c([N+](=O)[O-])c4)c(Oc4cnc5[nH]ccc5c4)c3)CC2)=C(c2ccc(Cl)cc2)C1 + C=CC(=O)N1CCN(c2nc(OCC3CCCN3C)nc3c2CCN(c2cccc4cccc(C)c24)C3)CC1CC#N	1850	1790	1770	1810	347	104	96	84.3	93	96.7	72	98.6	96.3	93.8	88.8	87.9	98.6	103	89	78.2	viability, T/C [5]: 12.6%; viability, T/C [6]: 0.73%; viability, T/C [11]: 9.74%; viability, T/C [12]: 5.69%; viability, T/C [16]: 93.4%; viability, T/C [17]: 8.01%; viability, T/C [18]: 5.23%; viability, T/C [21]: 100%; viability, T/C [22]: 104%; viability, T/C [23]: 1.8%; viability, T/C [24]: 0.52%; viability, T/C [27]: 54.7%; viability, T/C [28]: 10.2%; viability, T/C [29]: 0.3%; viability, T/C [30]: 2.95%
CCN1CCN(Cc2ccc(Nc3ncc(F)c(-c4cc(F)c5nc(C)n(C(C)C)c5c4)n3)nc2)CC1 + C=CC(=O)N1CCN(c2nc(OCC3CCCN3C)nc3c2CCN(c2cccc4cccc(C)c24)C3)CC1CC#N	> 1000	> 1000	> 1000	> 1000	397	91	113	158	153	108	165	198	123	119	86.5	160	102	166	133	125	viability, T/C [33]: 93.5%; viability, T/C [34]: 112%; viability, T/C [37]: 97.1%; viability, T/C [38]: 114%; viability, T/C [41]: 103%; viability, T/C [42]: 105%; viability, T/C [16]: 115%; viability, T/C [45]: 95.7%; viability, T/C [46]: 110%; viability, T/C [21]: 167%; viability, T/C [22]: 112%; viability, T/C [49]: 83.7%; viability, T/C [50]: 114%; viability, T/C [27]: 61.6%; viability, T/C [28]: 2.39%
CCNC(=O)CC1N=C(c2ccc(Cl)cc2)c2cc(OC)ccc2-n2c(C)nnc21 (stereo not given) + C=CC(=O)N1CCN(c2nc(OCC3CCCN3C)nc3c2CCN(c2cccc4cccc(C)c24)C3)CC1CC#N	> 10000	> 10000	> 10000	> 10000	725	80.1	112	118	115	79.5	112	113	89.5	90	119	121	91.8	110	109	125	viability, T/C [5]: 82.2%; viability, T/C [6]: 75.9%; viability, T/C [11]: 79.4%; viability, T/C [12]: 75.9%; viability, T/C [16]: 118%; viability, T/C [17]: 69.7%; viability, T/C [18]: 72.4%; viability, T/C [21]: 126%; viability, T/C [22]: 85.8%; viability, T/C [23]: 44.4%; viability, T/C [24]: 59.5%; viability, T/C [27]: 87.6%; viability, T/C [28]: 20.3%; viability, T/C [29]: 55.5%; viability, T/C [30]: 30.7%
Cn1ncnc1[C@H]1c2n[nH]c(=O)c3cc(F)cc(c23)N[C@@H]1c1ccc(F)cc1 + C=CC(=O)N1CCN(c2nc(OCC3CCCN3C)nc3c2CCN(c2cccc4cccc(C)c24)C3)CC1CC#N	> 100	> 100	> 100	> 100	> 100	85.2	82.5	–	–	81.5	77	–	–	91.4	82.5	–	112	98.9	84.6	102	viability, T/C [31]: 108%; viability, T/C [32]: 108%; viability, T/C [33]: 91.5%; viability, T/C [34]: 78%; viability, T/C [35]: 86.3%; viability, T/C [36]: 106%; viability, T/C [37]: 119%; viability, T/C [38]: 80%; viability, T/C [39]: 120%; viability, T/C [40]: 103%; viability, T/C [41]: 133%; viability, T/C [42]: 88.1%; viability, T/C [43]: 127%; viability, T/C [44]: 103%; viability, T/C [45]: 98.6%; viability, T/C [46]: 91.3%; viability, T/C [47]: 86.5%; viability, T/C [48]: 123%; viability, T/C [49]: 112%; viability, T/C [50]: 120%
